Data from the NIST ThermoML archive (doi:10.1021/acs.jced.9b00776).
± gives the expanded uncertainty stated by the source.

Legend:
[1] = for mass density / viscosity: 100.9 kPa, Liquid; for mass density: Vibrating tube method; for viscosity: Cone and plate viscometry; for Triple point temperature: Crystal; for Triple point temperature / Glass transition temperature: DSC
[2] = Molar enthalpy of transition or fusion; conditions: Crystal; DSC

SMILES | mass density ([1]; 293.15 K) [kg/m3] | viscosity ([1]; 293.2 K) [mPa·s] | mass density ([1]; 298.15 K) [kg/m3] | viscosity ([1]; 298.2 K) [mPa·s] | mass density ([1]; 303.15 K) [kg/m3] | viscosity ([1]; 303.2 K) [mPa·s] | mass density ([1]; 313.15 K) [kg/m3] | viscosity ([1]; 313.2 K) [mPa·s] | mass density ([1]; 323.15 K) [kg/m3] | viscosity ([1]; 323.2 K) [mPa·s] | mass density ([1]; 333.15 K) [kg/m3] | viscosity ([1]; 333.2 K) [mPa·s] | mass density ([1]; 343.15 K) [kg/m3] | viscosity ([1]; 343.2 K) [mPa·s] | mass density ([1]; 353.15 K) [kg/m3] | viscosity ([1]; 353.2 K) [mPa·s] | Triple point temperature [1] [K] | Molar enthalpy of transition or fusion [2] [kcal/mol] | Glass transition temperature [1] [°C]
CC(C)[n+]1ccn(C)c1.O=S(=O)([N-]S(=O)(=O)C(F)(F)F)C(F)(F)F | 1481.9 ± 2 | 58.3 ± 4.7 | 1476.8 ± 2 | 45.5 ± 3.7 | 1472 ± 2 | 36.9 ± 3 | 1462.5 ± 2 | 24.5 ± 2 | 1452.4 ± 2 | 19.3 ± 1.6 | 1442.9 ± 2 | 14.5 ± 1.2 | 1433.4 ± 2 | 11.2 ± 0.9 | 1423.7 ± 2 | 8.9 ± 0.7 | 283.5 ± 1.8 | 5.78 ± 0.167 | 
C[n+]1ccn(C(C)(C)C)c1.[I-] [1-tert-butyl-3-methylimidazolium iodide] |  |  |  |  |  |  |  |  |  |  |  |  |  |  |  |  | 432.7 ± 1.8 | 3.63 ± 0.12 | 
CC(C)[n+]1ccn(C)c1.F[P-](F)(F)(F)(F)F [1-methyl-3-(1-methylethyl)imidazolium hexafluorophosphate] |  |  |  |  |  |  |  |  |  |  |  |  |  |  |  |  | 374 ± 1.8 | 3.75 ± 0.12 | 
C[n+]1ccn(C(C)(C)C)c1.O=S(=O)([N-]S(=O)(=O)C(F)(F)F)C(F)(F)F | 1451.5 ± 2 | 167.3 ± 14 | 1446.6 ± 2 | 121.4 ± 10 | 1442 ± 2 | 91.5 ± 7.4 | 1432.8 ± 2 | 55.6 ± 4.5 | 1423.1 ± 2 | 37.5 ± 3 | 1413.8 ± 2 | 26.2 ± 2.1 | 1404.5 ± 2 | 19 ± 1.5 | 1395 ± 2 | 14.5 ± 1.2 | 280.4 ± 1.8 | 5.47 ± 0.167 | 
CC(C)[n+]1ccn(C)c1.[I-] [1-methyl-3-(1-methylethyl)imidazolium iodide] |  |  |  |  |  |  |  |  |  |  |  |  |  |  |  |  | 383.4 ± 1.8 | 3.9 ± 0.12 | 
C[n+]1ccn(C(C)(C)C)c1.O=S(=O)([N-]S(=O)(=O)C(F)(F)C(F)(F)F)C(F)(F)C(F)(F)F | 1530.8 ± 2 | 571.1 ± 53 | 1525.2 ± 2 | 367.2 ± 33 | 1519.9 ± 2 | 246.7 ± 21 | 1509.6 ± 2 | 126.1 ± 10 | 1498.9 ± 2 | 80.9 ± 6.6 | 1488.6 ± 2 | 50.7 ± 4.1 | 1478.4 ± 2 | 33.9 ± 2.7 | 1467.8 ± 2 | 23.8 ± 1.9 | 294.3 ± 1.8 | 3.99 ± 0.12 | -58.0 ± 1.8
C[n+]1ccn(C(C)(C)C)c1.F[P-](F)(F)(F)(F)F [1-tert-butyl-3-methylimidazolium hexafluorophosphate] |  |  |  |  |  |  |  |  |  |  |  |  |  |  |  |  | 421 ± 1.8 | 5.52 ± 0.167 | 
CC(C)n1cc[n+](C)c1.O=S(=O)([N-]S(=O)(=O)C(F)(F)C(F)(F)F)C(F)(F)C(F)(F)F | 1556.7 ± 2 | 172.6 ± 14 | 1551.3 ± 2 | 121.4 ± 10 | 1546 ± 2 | 91.7 ± 7.5 | 1535.5 ± 2 | 53 ± 4.3 | 1524.6 ± 2 | 38 ± 3.1 | 1514 ± 2 | 26.4 ± 2.1 | 1503.5 ± 2 | 19.1 ± 1.5 | 1492.8 ± 2 | 14.4 ± 1.2 |  |  | -75.7 ± 1.8
